US9884821B2, “N1-cyclic amine-N5-substituted biguanide derivatives, methods of preparing the same and pharmaceutical composition comprising the same” (IMMUNOMET THERAPEUTICS INC., priority 2013, dated 2018)

What was measured:
AMPK = AMPK activation effect (AMPK [pT172] ELISA) in MCF7 cells; format: cell-based, human; conditions: 24 hours; for AMPK activation effect (%) 5 μM / AMPK activation effect (%) 10 μM: AMPKα Thr172 phosphorylation relative to untreated cells; for AC150: concentration at which AMPK activation reached 150%
How it was run: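 MCF7 cells in DMEM/10% FBS were treated 24 h with compounds at 5, 10 and 50 uM. Lysates (20 μg protein) were assayed by ELISA for AMPKα Thr172 phosphorylation as the activation read-out.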

HCT116 cells = test: Effect of inhibiting cancer cell proliferation (MTT) in HCT116 cells; format: cell-based, human; conditions: for inhibition at 25 µM: read-out: Cell growth inhibition (%) at 25 μM
How it was run: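 HCT116 colorectal cells (about 5,000 per well, DMEM with 10% FBS) treated with 100, 25, 6.25, 1.56 or 0.39 μM compound for 48 h. MTT added for 3 h, formazan read at 560 nm; GIC50 taken from viability relative to untreated cells.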

[1] = Homo sapiens, HCT-116, 48 h, 25 μM

SMILES | AMPK activation effect (%) 5 μM (AMPK) | AMPK activation effect (%) 10 μM (AMPK) | AC150 (AMPK) | GI50 (HCT116 cells; Homo sapiens, HCT-116, 48 h) | inhibition at 25 µM (HCT116 cells; [1]) | AMPK activation effect (%) 5 μM (AMPK; hydrochloride) | AMPK activation effect (%) 10 μM (AMPK; hydrochloride) | AC150 (AMPK; hydrochloride) | Cell growth inhibition (%) at 25 μM (HCT116 cells; 25 μM, 48 hours, hydrochloride) | GI50 (HCT116 cells; 48 hours, hydrochloride)
CC1CCCN(C(=N)NC(=N)Nc2ccc(Cl)c(C(F)(F)F)c2)C1.Cl (stereo not drawn) [Example 69, N1-(3-methyl)piperidine-N5-(4-chloro, 3-trifluoromethyl)phenyl biguanide hydrochloride] | 307% | 650% | 1.2 µM | 1.9 µM | 100% |  |  |  |  | 
CC1CCCN(C(=N)NC(=N)Nc2ccc(C(F)(F)F)c(F)c2)C1.Cl (stereo not drawn) [Example 70, N1-(3-methyl)piperidine-N5-(3-fluoro, 4-trifluoromethyl)phenyl biguanide hydrochloride] | 365% | 602% | 0.9 µM | 3.9 µM | 100% |  |  |  |  | 
CC1CCCN(C(=N)NC(=N)Nc2ccc(F)c(C(F)(F)F)c2)C1.Cl (stereo not drawn) [Example 71, N1-(3-methyl)piperidine-N5-(4-fluoro, 3-trifluoromethyl)phenyl biguanide hydrochloride] |  |  |  | 5.7 µM | 100% | 259% | 430% | 1.6 µM |  | 
CC1CCCCN1C(=N)NC(=N)Nc1ccc(OC(F)(F)F)cc1.Cl (stereo not drawn) [Example 72, N1-(2-methyl)piperidine-N5-(4-trifluoromethoxy)phenyl biguanide hydrochloride] | 210% | 386% | 2.0 µM | 8 µM | 100% |  |  |  |  | 
CC1CCCCN1C(=N)NC(=N)Nc1cccc(OC(F)(F)F)c1.Cl (stereo not drawn) [Example 73, N1-(2-methyl)piperidine-N5-(3-trifluoromethoxy)phenyl biguanide hydrochloride] | 215% | 384% | 2.0 µM | 6.7 µM | 100% |  |  |  |  | 
CC1CCCCN1C(=N)NC(=N)Nc1ccc(C(F)(F)F)cc1.Cl (stereo not drawn) [Example 74, N1-(2-methyl)piperidine-N5-(4-trifluoromethyl)phenyl biguanide hydrochloride] | 199% | 410% | 2.0 µM | 8.7 µM | 100% |  |  |  |  | 
CC1CCCN(C(=N)NC(=N)Nc2ccc(OC(F)(F)F)c(F)c2)C1.Cl (stereo not drawn) [Example 75, N1-(3-methyl)piperidine-N5-(3-fluoro, 4-trifluoromethoxy)phenyl biguanide hydrochloride] | 133% | 259% | 3.9 µM | 9.3 µM | 100% |  |  |  |  | 
CC1CCCCN1C(=N)NC(=N)Nc1ccc(OC(F)(F)F)c(F)c1.Cl (stereo not drawn) [Example 76, N1-(2-methyl)piperidine-N5-(3-fluoro, 4-trifluoromethoxy)phenyl biguanide hydrochloride] | 242% | 375% | 1.7 µM | 5.8 µM | 100% |  |  |  |  | 
CC1CCCCN1C(=N)NC(=N)Nc1ccc(Cl)cc1.Cl (stereo not drawn) [Example 77, N1-(2-methyl)piperidine-N5-(4-chloro)phenyl biguanide hydrochloride] | 154% | 212% | 4.5 µM | 11.3 µM | 100% |  |  |  |  | 
CC1CCCCN1C(=N)NC(=N)Nc1ccc(F)c(C(F)(F)F)c1.Cl (stereo not drawn) [Example 78, N1-(2-methyl)piperidine-N5-(4-fluoro, 3-trifluoromethyl)phenyl biguanide hydrochloride] | 425% | 565% | 0.5 µM | 7 µM | 100% |  |  |  |  | 
CC1CCCCN1C(=N)NC(=N)Nc1cccc(C(F)(F)F)c1.Cl (stereo not drawn) [Example 79, N1-(2-methyl)piperidine-N5-(3-trifluoromethyl)phenyl biguanide hydrochloride] | 177% | 515% | 1.9 µM | 9.4 µM | 98.9% |  |  |  |  | 
CC1CCCCN1C(=N)NC(=N)Nc1ccc(Cl)c(C(F)(F)F)c1.Cl (stereo not drawn) [Example 80, N1-(2-methyl)piperidine-N5-(4-chloro, 3-trifluoromethyl)phenyl biguanide hydrochloride] | 334% | 590% | 1.1 µM | 6.8 µM | 99.7% |  |  |  |  | 
CC1CCCN(C(=N)NC(=N)Nc2ccc(C(F)(F)F)cc2)C1.Cl (stereo not drawn) [Example 81, N1-(3-methyl)piperidine-N5-(4-trifluoromethyl)phenyl biguanide hydrochloride] | 224% | 396% | 1.9 µM | 7.7 µM | 100% |  |  |  |  | 
CC1CCCN(C(=N)NC(=N)Nc2ccc(OC(F)(F)F)cc2)C1.Cl (stereo not drawn) [Example 82, N1-(3-methyl)piperidine-N5-(4-trifluoromethoxy)phenyl biguanide hydrochloride] | 401% | 474% | 0.5 µM | 7 µM | 100% |  |  |  |  | 
CC1CCCN(C(=N)NC(=N)Nc2cccc(OC(F)(F)F)c2)C1.Cl (stereo not drawn) [Example 83, N1-(3-methyl)piperidine-N5-(3-trifluoromethoxy)phenyl biguanide hydrochloride] | 352% | 398% | 0.5 µM | 6.8 µM | 100% |  |  |  |  | 
CC1CCCN(C(=N)NC(=N)NCc2ccc(OC(F)(F)F)cc2)C1.Cl (stereo not drawn) [Example 84, N1-(3-methyl)piperidine-N5-(4-trifluoromethoxy)benzyl biguanide hydrochloride] | 317% | 555% | 1.1 µM | 10.4 µM | 97% |  |  |  |  | 
CC1CCCN(C(=N)NC(=N)Nc2ccc(F)c(C(F)(F)F)c2)C1.Cl (stereo not drawn) [Example 85, N1-(3-methyl)piperidine-N5-(4-fluoro, 3-trifluoromethyl)phenyl biguanide hydrochloride] |  |  |  |  |  | 345% | 436% | 0.7 µM | 100.2% | 7.1 µM
CC1CCCN(C(=N)NC(=N)NCc2ccc(C(F)(F)F)cc2)C1.Cl (stereo not drawn) [Example 86, N1-(3-methyl)piperidine-N5-(4-trifluoromethyl)benzyl biguanide hydrochloride] | 147% | 330% | 2.3 µM | 27.6 µM | 49% |  |  |  |  | 
CC1CCCN(C(=N)NC(=N)Nc2ccc(Cl)cc2)C1.Cl (stereo not drawn) [Example 87, N1-(3-methyl)piperidine-N5-(4-chloro)phenyl biguanide hydrochloride] | 219% | 297% | 1.9 µM | 10 µM | 100% |  |  |  |  | 
CC1CCCN(C(=N)NC(=N)Nc2cccc(C(F)(F)F)c2)C1.Cl (stereo not drawn) [Example 88, N1-(3-methyl)piperidine-N5-(3-trifluoromethyl)phenyl biguanide hydrochloride] | 327% | 399% | 0.7 µM | 6.6 µM | 100% |  |  |  |  | 
CC1CCCC(C)N1C(=N)NC(=N)Nc1ccc(OC(F)(F)F)cc1.Cl (stereo not drawn) [Example 89, N1-(2,6-dimethyl)piperidine-N5-(4-trifluoromethoxy)phenyl biguanide hydrochloride] | 153% | 198% | 4.7 µM | 6.2 µM | 100% |  |  |  |  | 
